Legend:
human sebocytes = assay: Inhibition of sebocyte lipogenesis (14C-acetate incorporation); assay type: cell-based; details: 0.00035%; 14C-acetate label in sebocytes, 20 h + 4 h incubation
Method: Secondary cultures of human sebocytes obtained from an adult […] were grown in 48-well tissue culture plates (Costar Corp.; Cambridge, Mass.) until confluent. Sebocyte growth medium consisted of Clonetics Keratinocyte Basal Medium (KBM) supplemented with 14 μg/ml bovine pituitary extract, 0.4 μg/ml hydrocortisone, 5 μg/ml insulin, 10 ng/ml epidermal growth factor, 1.2×10^−10 M cholera toxin, 100 units/ml penicillin, and 100 μg/ml streptomycin. All cultures were incubated at 37° C. in the presence of 7.5% CO2. Medium was changed three times per week.
On the day of experimentation, the growth medium was removed and the sebocytes washed three times with sterile Dulbecco's Modified Eagle Medium (DMEM; phenol red free). Fresh DMEM was added to each sample (triplicates) with 5 μL of gum mastic solubilized in ethanol. Controls consisted of addition of ethanol alone to phenol red. Each plate was returned to the incubator for 20 hours followed by the addition of ^14C-acetate buffer (5 mM final concentration, 56 mCi/mmol specific activity). […] Radioactive label remaining in the sebocytes was harvested and counted using a Beckman scintillation counter. […]
Controls consisted of ethanol alone and phenol red, which has estrogen-like activity. Statistical significance was calculated using the student's T-test.

[1] = tested on: glycosaminoglycan synthesis; assay: Glycosaminoglycan synthesis; assay type: cell-based; details: positive control, concentration not given
procollagen I = assay: Procollagen I production by fibroblasts (slot blot); assay type: cell-based, human; details: positive control, head says (0.01%)
Method: This example measured production of procollagen I by fibroblasts in response to treatment with gum mastic in solvent solutions, as well as control solutions.
Gum mastic solubilized in ethanol solvent (“gum mastic”), and obtained from Sigma were tested.
Neonatal human dermal fibroblasts were purchased from Clonetics Corp., San Diego, Calif. All materials for cell culture were purchased from Life Technologies, NY and used in passages 5-10. Cells were seeded at a density of approximately 7,500/well in the inner 48 wells of a 96-well plate in a medium containing DMEM (Dulbecco's Modified Eagle's Medium), high-glucose supplemented with 2 mM L-glutamine, 10% fetal bovine serum, and antibiotic and antimycotic solutions). Cells were then grown to confluence for 2 days. At confluence, the medium was removed and cells were washed with serum-free DMEM, and each well dosed with 200 μl of a solution of gum mastic in serum-free DMEM. Each dosing was replicated in the total of six wells. […]
The membrane was stained until color developed and the reaction stopped with 2 washes for 10 minutes in tap water. […] Blot was scanned on Bio-Rad GS-700 Image Analysis densitometer and volume (OD*mm^2) of color/slot determined using molecular analysis software. Fold increase was calculated as a ratio of densitometer reading for cells treated with a gum mastic concentration over control.

O=S1(=O)OC(c2ccc(O)cc2)(c2ccc(O)cc2)c2ccccc21 [Phenol Red]
% Reduction (human sebocytes): 29.1%

TGF-b
Fold increase over control [1]: 1.4 fold | Average OD Reading ([1]; control 4531.8): 6382.3 | Fold increase over control (procollagen I): 1.4 fold | Average OD Reading (procollagen I; densitometer volume OD*mm^2, control 5400.5): 7499.8
